Experimental data published in patent US9862748B2, “Peptide compounds and methods of production and use thereof” (priority 2012, dated 2018).

Experiments:
[1] = tested on: Acinetobacter baumannii ATCC® BAA-747™; format: cell-based; conditions: 3.12-25 μM; 60 minutes
In short: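 Peptides at 25, 12.5, 6.25 and 3.12 μM were incubated with 1×10^6 CFU/ml bacteria at pH 5.5 or 7.2, with tryptone saline as negative control and gentamicin (4 μg/ml) as positive control. Incubation was 60 min for A. baumannii and 180 min for P. aeruginosa. Surviving CFU counted after overnight plating, expressed as log reduction in CFU/ml.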

swine skin wounds [2] = assay: Swine full thickness excisional dermal wound model, wound area; format: in vivo
Method: In this Example, peptide compounds of the presently disclosed and claimed inventive concept(s) were evaluated as to their activity on the dermal wound healing process in a clinically relevant swine full thickness excisional wound model. Three different peptide formulations (Group B, Peptide 95-122 (SEQ ID NO: 26); Group C, Peptide 120-146WH (SEQ ID NO: 31); and Group D, Peptide 120-146QH-5RMP (SEQ ID NO: 33)) were each evaluated at the same concentration (3 mg/ml). Sterile saline served as the control (Group A).
(§1) Full thickness excisional wounds were induced on the dorsum of swine (N=3) using a 1.0 cm biopsy punch. Treatments were administered (0.20 ml) to each wound (N=6 wounds per group), and the wounds were dressed with standard occlusive dressing ([…]™, 3M Corporation, St. Paul, Minn.). Treatments were reapplied daily and dressings changed. Clinical wound healing observations and wound area (2 mm) measurements were performed on days 0, 3, 5, 7, 10, and 14 post-wounding. Wound area (2 mm) data were expressed as percentage (%) of wound healing. Animals were terminated on day 14 with wounds harvested and processed for histological evaluation. […] All peptide formulation treatment groups healed faster with greater rate of closure and re-epithelialization over time, as compared to the saline control (Group A).

swine skin wounds [3] = assay: Swine dermal wound model, histological evaluation; format: in vivo; conditions: day 14 post-wounding
Method: The characteristics that were measured are required to indicate features of a well-healed wound. Inflammation should be low and re-epithelialization high.
as §1
The histology correlated with the clinical observations. […] There were minimal differences in the amount or character of granulation tissue, inflammation, and angiogenesis. All the wounds were well filled and vascularized.

[4] = 3 mg/ml, 0.20 ml per wound, reapplied daily

LDREANLTSSVTILPLPLQNATVEAGTR (listed as Homo sapiens) [Peptide 95-122]
activity against Acinetobacter at either pH (5.5, 7.2) [1]: not active
Mean Wound Healing (%) Day 0 (swine skin wounds [2]; [4]): 0.0%
Mean Wound Healing (%) Day 3 (swine skin wounds [2]; [4]): 28.9%
Mean Wound Healing (%) Day 5 (swine skin wounds [2]; [4]): 41.5%
Mean Wound Healing (%) Day 7 (swine skin wounds [2]; [4]): 70.8%
Mean Wound Healing (%) Day 10 (swine skin wounds [2]; [4]): 99.7%
Mean Wound Healing (%) Day 14 (swine skin wounds [2]; [4]): 100.0%
dermal wound healing (swine skin wounds [2]; topical 3 mg/ml over 14 days, vs saline): accelerate dermal wound healing
epidermal resurfacing and maturation of the epidermis versus saline control (swine skin wounds [3]): greater extent of epidermal resurfacing and maturation of the epidermis
Histopathology Results, Mean Angiogenesis (swine skin wounds [3]; 3 mg/ml): 2.3
Histopathology Results, Mean Epithelization (swine skin wounds [3]; 3 mg/ml): 4.0
Histopathology Results, Mean Granulation (swine skin wounds [3]; 3 mg/ml): 4.0
Histopathology Results, Mean Inflammation (swine skin wounds [3]; 3 mg/ml): 0.5
